Experimental data published in ChEMBL document CHEMBL3885881, “DrugMatrix”.

Species on record: Rattus norvegicus
Test: DrugMatrix - Regimen: Daily Repeat
Type: toxicity, organism-based, Sprague-Dawley
Design: regimen Daily Repeat, gender Male, age 6-8 weeks
Details: in vivo, po, 1200 mg/kg, route oral GAVAGE, dose level High, vehicle 100 % SALINE; for ABSOLUTE BASOPHIL / ABSOLUTE EOSINOPHIL / ABSOLUTE LYMPHOCYTE / ABSOLUTE MONOCYTE / ABSOLUTE SEGMENTED NEUTROPHIL / BASOPHIL / EOSINOPHIL / ERYTHROCYTE COUNT / HEMATOCRIT / HEMOGLOBIN / LEUKOCYTE COUNT / LYMPHOCYTE / MEAN CORPUSCULAR HEMOGLOBIN / MEAN CORPUSCULAR HEMOGLOBIN CONCENTRATION / MEAN CORPUSCULAR VOLUME / MONOCYTE / NEUTROPHIL / NUCLEATED RED BLOOD CELLS / PLATELET COUNT: tissue Blood; for ALANINE AMINOTRANSFERASE / ALBUMIN / ALKALINE PHOSPHATASE / ASPARTATE AMINOTRANSFERASE / BLOOD UREA NITROGEN / CARBON DIOXIDE / CHLORIDE / CHOLESTEROL / CREATINE PHOSPHOKINASE / CREATININE / GLUCOSE / LACTATE DEHYDROGENASE / LIPASE / PHOSPHORUS / POTASSIUM / SODIUM / TOTAL BILIRUBIN / TOTAL PROTEIN / URIC ACID: tissue Plasma

## CC(=O)OCC(CCn1cnc2cnc(N)nc21)COC(C)=O [FAMCICLOVIR]
72 h, time 3 day
  ABSOLUTE BASOPHIL: 0 CELLS/uL
  ABSOLUTE EOSINOPHIL: 0 CELLS/uL
  ABSOLUTE LYMPHOCYTE: 7020.67 CELLS/uL
  ABSOLUTE MONOCYTE: 111 CELLS/uL
  ABSOLUTE SEGMENTED NEUTROPHIL: 835 CELLS/uL
  BASOPHIL: 0%
  EOSINOPHIL: 0%
  ERYTHROCYTE COUNT: 5.23 x10E6/uL
  HEMATOCRIT: 33.07%
  HEMOGLOBIN: 13.03 G/DL
  LEUKOCYTE COUNT: 7.97 x10E3/uL
  LYMPHOCYTE: 88%
  MEAN CORPUSCULAR HEMOGLOBIN: 24.97 pg
  MEAN CORPUSCULAR HEMOGLOBIN CONCENTRATION: 39.4 G/DL
  MEAN CORPUSCULAR VOLUME: 63.33 fL
  MONOCYTE: 1.33%
  NEUTROPHIL: 10.67%
  NUCLEATED RED BLOOD CELLS: 0 /100WBC
  PLATELET COUNT: 1079.67 x10E3/uL
  ALANINE AMINOTRANSFERASE: 49 u/L
  ALBUMIN: 4.07 G/DL
  ALKALINE PHOSPHATASE: 334 u/L
  ASPARTATE AMINOTRANSFERASE: 80.33 u/L
  BLOOD UREA NITROGEN: 14.33 mg/dL
  CARBON DIOXIDE: 29.33 mmol/L
  CHLORIDE: 100.67 MEQ/L
  CHOLESTEROL: 77.33 mg/dL
  CREATINE PHOSPHOKINASE: 294 u/L
  CREATININE: 0.2 mg/dL
  GLUCOSE: 160 mg/dL
  LACTATE DEHYDROGENASE: 118.67 u/L
  LIPASE: 10 u/L
  PHOSPHORUS: 11.4 mg/dL
  POTASSIUM: 5.59 MEQ/L
  SODIUM: 144.23 MEQ/L
  TOTAL BILIRUBIN: 0.17 mg/dL
  TOTAL PROTEIN: 5.83 G/DL
  URIC ACID: 0.93 mg/dL
120 h, time 5 day
  ABSOLUTE BASOPHIL: 0 CELLS/uL
  ABSOLUTE EOSINOPHIL: 0 CELLS/uL
  ABSOLUTE LYMPHOCYTE: 9833.67 CELLS/uL
  ABSOLUTE MONOCYTE: 110.67 CELLS/uL
  ABSOLUTE SEGMENTED NEUTROPHIL: 822.33 CELLS/uL
  BASOPHIL: 0%
  EOSINOPHIL: 0%
  ERYTHROCYTE COUNT: 5.64 x10E6/uL
  HEMATOCRIT: 35.27%
  HEMOGLOBIN: 13.9 G/DL
  LEUKOCYTE COUNT: 10.77 x10E3/uL
  LYMPHOCYTE: 91.33%
  MEAN CORPUSCULAR HEMOGLOBIN: 24.73 pg
  MEAN CORPUSCULAR HEMOGLOBIN CONCENTRATION: 39.43 G/DL
  MEAN CORPUSCULAR VOLUME: 62.77 fL
  MONOCYTE: 1%
  NEUTROPHIL: 7.67%
  NUCLEATED RED BLOOD CELLS: 0.33 /100WBC
  PLATELET COUNT: 1147.67 x10E3/uL
  ALANINE AMINOTRANSFERASE: 54 u/L
  ALBUMIN: 4.03 G/DL
  ALKALINE PHOSPHATASE: 380.67 u/L
  ASPARTATE AMINOTRANSFERASE: 82.33 u/L
  BLOOD UREA NITROGEN: 13 mg/dL
  CARBON DIOXIDE: 29.67 mmol/L
  CHLORIDE: 100.67 MEQ/L
  CHOLESTEROL: 75.67 mg/dL
  CREATINE PHOSPHOKINASE: 286 u/L
  CREATININE: 0.31 mg/dL
  GLUCOSE: 147.33 mg/dL
  LACTATE DEHYDROGENASE: 106 u/L
  LIPASE: 9.33 u/L
  PHOSPHORUS: 11.2 mg/dL
  POTASSIUM: 5.79 MEQ/L
  SODIUM: 145.73 MEQ/L
  TOTAL BILIRUBIN: 0.17 mg/dL
  TOTAL PROTEIN: 5.77 G/DL
  URIC ACID: 0.73 mg/dL
